Data as given in patent US12582598B2, “Topical anti-inflammatory pharmaceutical composition comprising Zileuton” (QURIENT CO., LTD., priority 2019, dated 2026).
Converted amounts (≈) assume the structure as drawn. Each block holds one molecule with its values, some of them ahead of it.

How the values were obtained:
[1] = test system: phorbol ester induced ear edema in ICR mice; test: Phorbol ester induced ear edema test; format: in vivo
Method: Phorbol Ester Induced Ear Edema Test
The effect of Zileuton-containing formulations on phorbol ester induced ear edema in ICR mice was evaluated. One hundred and twenty (120) female ICR mice were assigned to eleven (11) groups by randomization with BioBook software to achieve similar mean weight and right ear thickness baseline among groups. Mice were terminated by 95% CO2 asphyxiation and then cervical dislocation.
Totally nine (9) Zileuton-containing formulations which are SO13, SO17, WB6, Gel-10, Gel-11, LO3, LO13, SPC19 and Zileuton 1.0% cream were selected for the tests Dexamethasone were used for the reference and Acetone was treated to the vehicle group.
Mice were anesthetized with 2-5 isoflurane. The mice were sensitized by painting 5 μg of phorbol ester dissolved in 0.02 mL of Acetone on ear inside and out. […] Six (6) hours after the modeling, the both side's ear thickness were measured after anesthetized by isoflurane (2-3%), respectively. Ear swelling response was determined by ear thickness measured with a micrometer before challenge and 6 hours after challenge and reported as the mean change in ear thickness (ΔT±S.E.M.). Percent suppression of ear swelling response was calculated as % suppression=[1−(ΔT of sensitized mice exposed to experimental treatment/ΔT of sensitized mice exposed to vehicle treatment)]×100.

[2] = Approximate solubility of Zileuton in various solvents/vehicles; format: physicochemical
Method: Solubility of Zileuton in Various Solvents
Approximately solubility of the Zileuton was measured in different vehicles. Semi-soild and waxy solid excipients were melted and tested at 50° C. or 70° C.

Compound: C[C@@H]1C[C@H]2[C@@H]3CCC4=CC(=O)C=C[C@]4(C)[C@@]3(F)[C@@H](O)C[C@]2(C)[C@@]1(O)C(=O)CO [Dex, Dexamethasone]
ear swelling (ear swelling response) ([1]; ICR mice, phorbol ester 5 μg/ear, result in words): significant decrease in ear swelling
Suppression Rate: % suppression Vs G1-right ear ([1]; female ICR mice, phorbol ester (PMA) 5 μg/ear, topical treatment, ear thickness 6 hours after challenge, vs vehicle (Acetone) group): 27.14%

solubility ([2]; 25 mM sodium citrate buffer, 25 °C, pH 4, aqueous buffer, vehicle 25 mM sodium citrate buffer solution (pH = 4)): < 5 mg/mL
solubility ([2]; 20% 2-Hydroxypropyl-β-cyclodextrin in water, 25 °C, aqueous with cosolvent or surfactant or cyclodextrin, vehicle 20% 2-Hydroxypropyl-β-cyclodextrin in water): 10 to 16.7 mg/mL (≈ 42.3 to 70.7 mM)
solubility ([2]; 20% Poloxamer 188 in water, 25 °C, aqueous with cosolvent or surfactant or cyclodextrin, vehicle 20% Poloxamer 188 water): < 5 mg/mL
solubility ([2]; 20% Sulfobutylether-β-cyclodextrin in water, 25 °C, aqueous with cosolvent or surfactant or cyclodextrin, vehicle 20% Sulfobutylether-β-cyclodextrin in water): 10 to 16.7 mg/mL (≈ 42.3 to 70.7 mM)
solubility ([2]; 25 °C, pH 4, aqueous with cosolvent or surfactant or cyclodextrin, vehicle 20% 2-Hydroxypropyl-β-cyclodextrin in pH 4 sodium citrate buffer): 10 to 16.7 mg/mL (≈ 42.3 to 70.7 mM)
solubility ([2]; 25 °C, pH 4, aqueous with cosolvent or surfactant or cyclodextrin, vehicle 20% Sulfobutylether-β-cyclodextrin in pH 4 sodium citrate buffer): 5 to 10 mg/mL (≈ 21.2 to 42.3 mM)
solubility ([2]; Beeswax polyethylene glycol-8, 70 °C, oil or lipid, vehicle Beeswax polyethylene glycol-8, 70° C.): 15.7 to 25 mg/mL (≈ 66.4 to 106 mM)
solubility ([2]; Caprylic glycerides, 50 °C, oil or lipid, vehicle Caprylic glycerides): 18.2 to 28.6 mg/mL (≈ 77 to 121 mM)
solubility ([2]; Caprylocaproyl polyoxyl glycerides, 25 °C, oil or lipid, vehicle Caprylocaproyl polyoxyl glycerides): 40 to 66.7 mg/mL (≈ 169 to 282 mM)
solubility ([2]; Castor oil, 25 °C, oil or lipid, vehicle Castor oil): < 5 mg/mL
solubility ([2]; Corn oil, 25 °C, oil or lipid, vehicle Corn oil): < 5 mg/mL
solubility ([2]; Diethylene glycol monoethyl ether, 25 °C, organic solvent or mixture, vehicle Diethylene glycol monoethyl ether): > 200 mg/mL
solubility ([2]; Dimethyl acetamide, 25 °C, organic solvent or mixture, vehicle Dimethyl acetamide): 66.7 to 100 mg/mL (≈ 282 to 423 mM)
solubility ([2]; Dimethyl formamide, 25 °C, organic solvent or mixture, vehicle Dimethyl formamide): 100 to 200 mg/mL (≈ 423 to 846 mM)
solubility ([2]; Dimethyl sulfoxide, 25 °C, organic solvent or mixture, vehicle Dimethyl sulfoxide): 100 to 200 mg/mL (≈ 423 to 846 mM)
solubility ([2]; Ethanol, 25 °C, organic solvent or mixture, vehicle Ethanol): 40 to 50 mg/mL (≈ 169 to 212 mM)
solubility ([2]; Ethyl oleate, 25 °C, oil or lipid, vehicle Ethyl oleate): < 5 mg/mL
solubility ([2]; Ethylene glycol palmitostearate, 70 °C, oil or lipid, vehicle Ethylene glycol palmitostearate): 50 to 100 mg/mL (≈ 212 to 423 mM)
solubility ([2]; Glycerin, 25 °C, organic solvent or mixture, vehicle Glycerin): < 10 mg/mL
solubility ([2]; Glyceryl mono and di stearate, 70 °C, oil or lipid, vehicle Glyceryl mono and di stearate): 25 to 50 mg/mL (≈ 106 to 212 mM)
solubility ([2]; Glyceryl monocaprate type I, 25 °C, oil or lipid, vehicle Glyceryl monocaprate type I): 8.3 to 12.5 mg/mL (≈ 35.1 to 52.9 mM)
solubility ([2]; Glyceryl monolinoleate, 25 °C, oil or lipid, vehicle Glyceryl monolinoleate): < 5 mg/mL
solubility ([2]; Glyceryl monostearate, 70 °C, oil or lipid, vehicle Glyceryl monostearate): 25 to 50 mg/mL (≈ 106 to 212 mM)
solubility ([2]; Hexylene glycol, 25 °C, organic solvent or mixture, vehicle Hexylene glycol): 25 to 50 mg/mL (≈ 106 to 212 mM)
solubility ([2]; Isopropyl myristate, 25 °C, oil or lipid, vehicle Isopropyl myristate): < 5 mg/mL
solubility ([2]; Lanolin, 70 °C, oil or lipid, vehicle Lanolin): < 5 mg/mL
solubility ([2]; Lauroyl polyoxyl-6 glycerides, 50 °C, oil or lipid, vehicle Lauroyl polyoxyl-6 glycerides): < 10 mg/mL
solubility ([2]; Lauroyl polyoxyl-32 glycerides, 50 °C, oil or lipid, vehicle Lauroyl polyoxyl-32 glycerides): < 10 mg/mL
solubility ([2]; Linoleoyl polyoxyl-6 glycerides, 25 °C, oil or lipid, vehicle Linoleoyl polyoxyl-6 glycerides): < 5 mg/mL
solubility ([2]; Liquid paraffin, 25 °C, oil or lipid, vehicle Liquid paraffin): < 5 mg/mL
solubility ([2]; Medium chain triglycerides, 25 °C, oil or lipid, vehicle Medium chain triglycerides): < 5 mg/mL
solubility ([2]; N-methyl-2-pyrrolidone, 25 °C, organic solvent or mixture, vehicle N-methyl-2-pyrrolidone): > 200 mg/mL
solubility ([2]; Oleic acid, 25 °C, oil or lipid, vehicle Oleic acid): < 5 mg/mL
solubility ([2]; Oleoyl polyoxyl-6 glycerides, 25 °C, oil or lipid, vehicle Oleoyl polyoxyl-6 glycerides): < 5 mg/mL
solubility ([2]; Olive oil, 25 °C, oil or lipid, vehicle Olive oil): < 5 mg/mL
solubility ([2]; Paraffin, 70 °C, oil or lipid, vehicle Paraffin): < 5 mg/mL
solubility ([2]; Peceol, 25 °C, oil or lipid, vehicle Peceol): < 5 mg/mL
solubility ([2]; Poly-oxyethylene esters of 12-hydroxystearic acid, 50 °C, organic solvent or mixture, vehicle Poly-oxyethylene esters of 12-hydroxystearic acid): 40 to 100 mg/mL (≈ 169 to 423 mM)
solubility ([2]; Polyethylene glyco-40 hydrogenated castor oil, 50 °C, organic solvent or mixture, vehicle Polyethylene glyco-40 hydrogenated castor oil): 22.2 to 28.6 mg/mL (≈ 93.9 to 121 mM)
solubility ([2]; Polyethylene glycol 200, 25 °C, organic solvent or mixture, vehicle Polyethylene glycol 200, 25° C.): 50 to 66.7 mg/mL (≈ 212 to 282 mM)
solubility ([2]; Polyethylene glycol 300, 25 °C, organic solvent or mixture, vehicle Polyethylene glycol 300, 25° C.): 40 to 66.7 mg/mL (≈ 169 to 282 mM)
solubility ([2]; Polyethylene glycol 400, 25 °C, organic solvent or mixture, vehicle Polyethylene glycol 400, 25° C.): 40 to 66.7 mg/mL (≈ 169 to 282 mM)
solubility ([2]; Polyethylene glycol 1500, 70 °C, organic solvent or mixture, vehicle Polyethylene glycol 1500, 70° C.): 50 to 100 mg/mL (≈ 212 to 423 mM)
solubility ([2]; Polyethylene glycol 3350, 70 °C, organic solvent or mixture, vehicle Polyethylene glycol 3350, 70° C.): 25 to 50 mg/mL (≈ 106 to 212 mM)
solubility ([2]; Polyethylene glycol 6000, 70 °C, organic solvent or mixture, vehicle Polyethylene glycol 6000, 70° C.): 25 to 50 mg/mL (≈ 106 to 212 mM)
solubility ([2]; Polyethylene glycol octadecyl ether, 25 °C, organic solvent or mixture, vehicle Polyethylene glycol octadecyl ether): 10 to 11.1 mg/mL (≈ 42.3 to 47 mM)
solubility ([2]; Polyethylene glycol sorbitan monolaurate, 25 °C, organic solvent or mixture, vehicle Polyethylene glycol sorbitan monolaurate): 12.5 to 14.3 mg/mL (≈ 52.9 to 60.5 mM)
solubility ([2]; Polyoxy ethylene sorbitan monooleate, 25 °C, organic solvent or mixture, vehicle Polyoxy ethylene sorbitan monooleate): 12.5 to 14.3 mg/mL (≈ 52.9 to 60.5 mM)
solubility ([2]; Polyoxy ethylene sorbitan monostearate, 25 °C, organic solvent or mixture, vehicle Polyoxy ethylene sorbitan monostearate): 33.3 to 50 mg/mL (≈ 141 to 212 mM)
solubility ([2]; Polyoxyl 35 hydrogenated castor oil, 25 °C, organic solvent or mixture, vehicle Polyoxyl 35 hydrogenated castor oil): 12.5 to 14.3 mg/mL (≈ 52.9 to 60.5 mM)
solubility ([2]; Propylene glycol dicaprylate, 25 °C, oil or lipid, vehicle Propylene glycol dicaprylate): < 5 mg/mL
solubility ([2]; Propylene glycol monocaprylate type II, 25 °C, oil or lipid, vehicle Propylene glycol monocaprylate type II): 12.5 to 25 mg/mL (≈ 52.9 to 106 mM)
solubility ([2]; Propylene glycol monolaurate, 25 °C, oil or lipid, vehicle Propylene glycol monolaurate): 8.3 to 12.5 mg/mL (≈ 35.1 to 52.9 mM)
solubility ([2]; Propylene glycol, 25 °C, organic solvent or mixture, vehicle Propylene glycol): 40 to 66.7 mg/mL (≈ 169 to 282 mM)
solubility ([2]; Sorbitan monolaurate, 25 °C, oil or lipid, vehicle Sorbitan monolaurate): < 5 mg/mL
solubility ([2]; Sorbitane monooleate, 25 °C, oil or lipid, vehicle Sorbitane monooleate): < 5 mg/mL
solubility ([2]; Triethanolamine, 25 °C, organic solvent or mixture, vehicle Triethanolamine): < 10 mg/mL
solubility ([2]; Water, 25 °C, vehicle Water): < 5 mg/mL
solubility ([2]; White vaseline, 70 °C, oil or lipid, vehicle White vaseline): < 5 mg/mL
solubility ([2]; White wax, 70 °C, oil or lipid, vehicle White wax): < 5 mg/mL
solubility ([2]; d-a-tocopheryl polyethylene glycol 1000 succinate, 50 °C, oil or lipid, vehicle d-a-tocopheryl polyethylene glycol 1000 succinate): < 10 mg/mL
Compound: CC(c1cc2ccccc2s1)N(O)C(N)=O (racemic) [Zileuton, (±)-1-(1-(benzo[b]thiophen-2-yl)ethyl)-1-hydroxyurea]
